Source: patent US20240270762A1, “PENICILLIN-BINDING PROTEIN INHIBITORS” (priority 2021, published 2024)
Values after ≈ are worked out from the molar mass of the structure shown. Where two headings read alike, the source gives them in different places.

Tests used:
[1] = target: T1, PBP3 from Escherichia coli (K-12) (Escherichia coli, UniProt P0AD68); experiment: Bocillin-FL fluorescence polarization competition binding, E. coli PBP3
T1 construct: made in house
How it was run: (§1)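 Purified PBP was preincubated with inhibitor (E. coli PBP3 1.5 μM, 30 min; P. aeruginosa PBP3 0.75 μM, A. baumannii PBP3 0.2 μM and PBP1a 1 μM, 15 min), then Bocillin-FL (0.1 μM; 0.05 μM for PBP1a) added and FP read up to 60 min. EC50 = 50% loss of bound probe.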

[2] = target: T2, PBP3 from Pseudomonas aeruginosa (PAO1) (Pseudomonas aeruginosa, UniProt G3XD46); experiment: Bocillin-FL fluorescence polarization competition binding, P. aeruginosa PBP3; details: Binding affinity to P. aeruginosa PBP3; fluorescence polarization competition binding assay using Bocillin-FL; read-out: P. aeruginosa PBP3 Potency
T2 construct: made in house
T2 sequence (G3XD46 whole entry): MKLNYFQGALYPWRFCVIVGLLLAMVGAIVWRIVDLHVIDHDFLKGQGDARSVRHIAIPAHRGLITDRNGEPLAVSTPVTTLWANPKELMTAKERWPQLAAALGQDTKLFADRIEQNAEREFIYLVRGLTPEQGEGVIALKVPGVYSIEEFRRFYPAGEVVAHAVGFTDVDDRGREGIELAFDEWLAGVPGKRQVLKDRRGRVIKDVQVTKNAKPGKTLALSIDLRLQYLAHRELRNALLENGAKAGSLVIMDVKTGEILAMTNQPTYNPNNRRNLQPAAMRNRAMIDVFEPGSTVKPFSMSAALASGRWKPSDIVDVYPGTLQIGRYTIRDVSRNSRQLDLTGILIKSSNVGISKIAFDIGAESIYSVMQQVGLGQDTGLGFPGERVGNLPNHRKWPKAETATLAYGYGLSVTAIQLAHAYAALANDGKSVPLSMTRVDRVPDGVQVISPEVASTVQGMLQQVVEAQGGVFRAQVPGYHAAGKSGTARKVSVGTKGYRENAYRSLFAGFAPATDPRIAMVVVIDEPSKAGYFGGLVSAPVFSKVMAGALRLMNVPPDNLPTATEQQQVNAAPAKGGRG
How it was run: as §1

P. aeruginosa ATCC 27853 = experiment: microbe, parasite or virus in culture; assay type: cell-based; details: Pseudomonas aeruginosa, ATCC27853, read-out: Minimum inhibitory concentration, P. aeruginosa ATCC 27853
A. baumannii ATCC 17978 = experiment: microbe, parasite or virus in culture; assay type: cell-based; details: Acinetobacter baumannii, ATCC17978, read-out: MIC, A. baumannii ATCC 17978
P. aeruginosa CDC-0054 = experiment: microbe, parasite or virus in culture; assay type: cell-based; details: Pseudomonas aeruginosa, CDC0054, read-out: Minimum inhibitory concentration, P. aeruginosa CDC-0054
P. aeruginosa CDC-0095 = experiment: microbe, parasite or virus in culture; assay type: cell-based; details: Pseudomonas aeruginosa, CDC0095, read-out: Minimum inhibitory concentration, P. aeruginosa CDC-0095
A. baumannii CDC-0033 = experiment: microbe, parasite or virus in culture; assay type: cell-based; details: Acinetobacter baumannii, CDC0033, read-out: MIC, A. baumannii CDC-0033
A. baumannii CDC-0036 = experiment: microbe, parasite or virus in culture; assay type: cell-based; details: Acinetobacter baumannii, CDC0036, read-out: MIC, A. baumannii CDC-0036
[3] = tested on: B. humptydooensis ATCC BAA-2767; experiment: microbe, parasite or virus in culture; assay type: cell-based; details: Burkholderia humptydooensis, ATCCBAA2767, read-out: Minimum inhibitory concentration (MIC), B. humptydooensis ATCC BAA-2767
P. aeruginosa CDC-0110 = experiment: microbe, parasite or virus in culture; assay type: cell-based; details: Pseudomonas aeruginosa, CDC0110, read-out: Minimum inhibitory concentration, P. aeruginosa CDC-0110
N. gonorrhoeae FA1090 = experiment: Liquid broth MIC in Fastidious broth; details: Neisseria gonorrhoeae
N. gonorrhoeae MS11 = experiment: Liquid broth MIC in Fastidious broth; details: Neisseria gonorrhoeae
Experimental: Additional antibacterial testing of the series was performed in 8 reference strains of N. gonorrhoeae (ATCC 49226, FA1090, MS 11, WHO G, WHO L, WHO M, WHO K, WHO X, WHO Z, WHO Q, CDC-0197). ATCC 49226, FA1090, MS11, WHO G, WHO L, and WHO M produce wild type or wild-type like PBP2. WHO K, WHO X, WHO Z, WHO Q, and CDC-0197 produce mosaic PBP2. Liquid broth-based assays were used for antibacterial testing of PBP inhibitors in Neisseria gonorrhoeae. Briefly, cryo-preserved bacterial cultures of clinical strains were streaked for isolation on Chocolate Agar (72 g/L (2×) GC Agar Base (BD #228950) and 2% (2×) Hemoglobin was autoclaved at 121° C. for 20 minutes to sterilize. Once cooled to ˜50° C. the 2×GC Agar Base and 2× Hemoglobin solutions are combined and 1% IsoVitaleX Enrichment (BD #211876) was added to the solution). Strains were incubated at 36° C. and 5% CO2 to allow growth of colonies, 24 hours before inoculum preparation. 2-fold serial dilutions of test compounds were conducted in a 96 well plate with a final volume of 75 μL per well at 2-fold the final desired concentration in Fastidious broth (Remel #R07664). For preparation of assay inoculum, a direct suspension was prepared by aseptically swabbing 10-15 colonies from agar plates into culture tubes containing 2 mL of fresh sterile saline. After the dilution plates were set up, direct suspensions were then diluted in a cuvette containing sterile saline and the optical density was measured at 600 nm. Inocula were diluted such that 75 μL of this culture in Fastidious broth results in a starting bacterial concentration of 5×10^5 CFU/mL when added to the dilution plates. The plates were incubated for ˜24 hours at 36° C. and 5% CO2.

N. gonorrhoeae WHO L = experiment: Liquid broth MIC in Fastidious broth; details: Neisseria gonorrhoeae
N. gonorrhoeae WHO K = experiment: Liquid broth MIC in Fastidious broth; details: Neisseria gonorrhoeae
N. gonorrhoeae WHO Z = experiment: Liquid broth MIC in Fastidious broth; details: Neisseria gonorrhoeae
[4] = FA1090, read-out: Minimum Inhibitory Concentration (MIC), N. gonorrhoeae FA 1090
[5] = MS11, read-out: Minimum Inhibitory Concentration (MIC), N. gonorrhoeae MS11
[6] = read-out: Minimum Inhibitory Concentration (MIC), N. gonorrhoeae WHO L
[7] = read-out: Minimum Inhibitory Concentration (MIC), N. gonorrhoeae WHO K
[8] = read-out: Minimum Inhibitory Concentration (MIC), N. gonorrhoeae WHO Z
[9] = FA1090, read-out: Minimum Inhibitory Concentration, FA 1090
[10] = MS11, read-out: Minimum Inhibitory Concentration, MS11
[11] = read-out: Minimum Inhibitory Concentration, WHO L
[12] = read-out: Minimum Inhibitory Concentration, WHO K
[13] = read-out: Minimum Inhibitory Concentration, WHO Z

T1 sequence (P0AD68 1-577): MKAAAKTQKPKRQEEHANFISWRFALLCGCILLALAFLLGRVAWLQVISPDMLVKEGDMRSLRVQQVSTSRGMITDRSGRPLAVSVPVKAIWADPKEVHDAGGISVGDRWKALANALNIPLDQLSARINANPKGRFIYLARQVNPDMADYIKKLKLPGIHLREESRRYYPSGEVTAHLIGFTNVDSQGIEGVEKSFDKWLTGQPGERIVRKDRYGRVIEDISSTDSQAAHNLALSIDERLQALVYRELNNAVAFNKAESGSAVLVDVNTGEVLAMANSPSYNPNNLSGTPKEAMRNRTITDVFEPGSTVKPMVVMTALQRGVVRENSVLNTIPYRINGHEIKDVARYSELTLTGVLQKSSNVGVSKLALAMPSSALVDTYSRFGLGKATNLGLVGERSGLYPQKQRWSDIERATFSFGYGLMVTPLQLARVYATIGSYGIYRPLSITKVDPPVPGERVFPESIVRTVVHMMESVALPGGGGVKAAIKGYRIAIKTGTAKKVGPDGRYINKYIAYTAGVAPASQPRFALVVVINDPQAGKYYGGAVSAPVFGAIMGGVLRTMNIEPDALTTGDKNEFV

| SMILES | EC50 [1] [µM] | IC50 [2] [µM] | MIC (P. aeruginosa ATCC 27853) [µg/mL] | MIC (A. baumannii ATCC 17978) [µg/mL] | MIC (P. aeruginosa CDC-0054) [µg/mL] | MIC (P. aeruginosa CDC-0095) [µg/mL] | MIC (A. baumannii CDC-0033) [µg/mL] | MIC (A. baumannii CDC-0036) [µg/mL] | MIC [3] [µg/mL] | MIC (P. aeruginosa CDC-0110) [µg/mL] | MIC (N. gonorrhoeae FA1090; [4]) [µg/mL] | MIC (N. gonorrhoeae MS11; [5]) [µg/mL] | MIC (N. gonorrhoeae WHO L; [6]) [µg/mL] | MIC (N. gonorrhoeae WHO K; [7]) [µg/mL] | MIC (N. gonorrhoeae WHO Z; [8]) [µg/mL] | MIC (N. gonorrhoeae FA1090; [9]) [µg/mL] | MIC (N. gonorrhoeae MS11; [10]) [µg/mL] | MIC (N. gonorrhoeae WHO L; [11]) [µg/mL] | MIC (N. gonorrhoeae WHO K; [12]) [µg/mL] | MIC (N. gonorrhoeae WHO Z; [13]) [µg/mL] |
| --- | --- | --- | --- | --- | --- | --- | --- | --- | --- | --- | --- | --- | --- | --- | --- | --- | --- | --- | --- | --- |
| O=C(NCCN1CCN(C(=O)NC(C(=O)N[C@H]2Cc3ccc(F)c(C(=O)O)c3OB2O)c2cc(F)c(O)c(O)c2Cl)C(=O)C1=O)Nc1ccc(O)cc1 (stereo partly drawn) [Example 219, (3R)-3-(2-(2-chloro-5-fluoro-3,4-dihydroxyphenyl)-2-(4-(2-(3-(4-hydroxyphenyl)ureido)ethyl)-2,3-dioxopiperazine-1-carboxamido)acetamido)-7-fluoro-2-hydroxy-3,4-dihydro-2H-benzo[e][1,2]oxaborinine-8-carboxylic acid] | < 10 | < 10 | 2 to 4 (≈ 2.63 to 5.26 µM) | < 1 | 8 to 16 (≈ 10.5 to 21 µM) | 8 to 16 (≈ 10.5 to 21 µM) | 8 to 16 (≈ 10.5 to 21 µM) | 8 to 16 (≈ 10.5 to 21 µM) | 8 to 16 (≈ 10.5 to 21 µM) | < 1 | 1 to 2 (≈ 1.31 to 2.63 µM) | 16 to 32 (≈ 21 to 42.1 µM) | > 64 | > 64 | 16 to 32 (≈ 21 to 42.1 µM) |  |  |  |  |  |
| O=C(NCCN1CCN(C(=O)N[C@@H](C(=O)N[C@H]2Cc3ccc(F)c(C(=O)O)c3OB2O)c2cc(F)c(O)c(O)c2Cl)C(=O)C1=O)Nc1ccncc1 [Example 221, (R)-3-((R)-2-(2-chloro-5-fluoro-3,4-dihydroxyphenyl)-2-(2,3-dioxo-4-(2-(3-(pyridin-4-yl)ureido)ethyl)piperazine-1-carboxamido)acetamido)-7-fluoro-2-hydroxy-3,4-dihydro-2H-benzo[e][1,2]oxaborinine-8-carboxylic acid] | < 10 | < 10 | < 1 | < 1 | 2 to 4 (≈ 2.68 to 5.36 µM) | 8 to 16 (≈ 10.7 to 21.5 µM) | 2 to 4 (≈ 2.68 to 5.36 µM) | 2 to 4 (≈ 2.68 to 5.36 µM) | < 1 | < 1 | 1 to 2 (≈ 1.34 to 2.68 µM) | 16 to 32 (≈ 21.5 to 42.9 µM) | > 64 | > 64 | > 64 |  |  |  |  |  |
| O=C(NCCS(=O)(=O)N1CCN(C(=O)N[C@@H](C(=O)N[C@H]2Cc3ccc(F)c(C(=O)O)c3OB2O)c2cc(F)c(O)c(O)c2Cl)C1=O)Nc1cccnc1 [Example 267, (R)-3-((R)-2-(2-chloro-5-fluoro-3,4-dihydroxyphenyl)-2-(2-oxo-3-((2-(3-(pyridin-3-yl)ureido)ethyl)sulfonyl)imidazolidine-1-carboxamido)acetamido)-7-fluoro-2-hydroxy-3,4-dihydro-2H-benzo[e][1,2]oxaborinine-8-carboxylic acid] | < 10 | < 10 | 2 to 4 (≈ 2.56 to 5.12 µM) | < 1 | 2 to 4 (≈ 2.56 to 5.12 µM) | 2 to 4 (≈ 2.56 to 5.12 µM) | 8 to 16 (≈ 10.2 to 20.5 µM) | 2 to 4 (≈ 2.56 to 5.12 µM) | 2 to 4 (≈ 2.56 to 5.12 µM) | 2 to 4 (≈ 2.56 to 5.12 µM) |  |  |  |  |  | 1 to 2 (≈ 1.28 to 2.56 µM) | 16 to 32 (≈ 20.5 to 40.9 µM) | > 64 | > 64 | 4 to 8 (≈ 5.12 to 10.2 µM) |
| O=C(NCCCS(=O)(=O)N1CCN(C(=O)NC(C(=O)N[C@H]2Cc3ccc(F)c(C(=O)O)c3OB2O)c2cc(F)c(O)c(O)c2Cl)C1=O)c1ccncc1 (stereo partly drawn) [Example 272, (3R)-3-(2-(2-chloro-5-fluoro-3,4-dihydroxyphenyl)-2-(3-((3-(isonicotinamido)propyl)sulfonyl)-2-oxoimidazolidine-1-carboxamido)acetamido)-7-fluoro-2-hydroxy-3,4-dihydro-2H-benzo[e][1,2]oxaborinine-8-carboxylic acid] | < 10 | < 10 | 2 to 4 (≈ 2.56 to 5.12 µM) | < 1 | 8 to 16 (≈ 10.2 to 20.5 µM) | > 128 | 8 to 16 (≈ 10.2 to 20.5 µM) | 2 to 4 (≈ 2.56 to 5.12 µM) | 2 to 4 (≈ 2.56 to 5.12 µM) | 2 to 4 (≈ 2.56 to 5.12 µM) |  |  |  |  |  | 4 to 8 (≈ 5.12 to 10.2 µM) | 16 to 32 (≈ 20.5 to 41 µM) | > 64 | > 64 | 4 to 8 (≈ 5.12 to 10.2 µM) |
| O=C(NCCS(=O)(=O)N1CCN(C(=O)N[C@H](C(=O)N[C@H]2Cc3ccc(F)c(C(=O)O)c3OB2O)c2cc(F)c(O)c(O)c2Cl)C1=O)c1nccs1 [Example 263, (R)-3-((S)-2-(2-chloro-5-fluoro-3,4-dihydroxyphenyl)-2-(2-oxo-3-((2-(thiazole-2-carboxamido)ethyl)sulfonyl)imidazolidine-1-carboxamido)acetamido)-7-fluoro-2-hydroxy-3,4-dihydro-2H-benzo[e][1,2]oxaborinine-8-carboxylic acid] | > 250 | 10 to 50 | 32 to 64 (≈ 41.4 to 82.8 µM) | < 1 | 8 to 16 (≈ 10.4 to 20.7 µM) | > 128 | 32 to 64 (≈ 41.4 to 82.8 µM) | 32 to 64 (≈ 41.4 to 82.8 µM) | 8 to 16 (≈ 10.4 to 20.7 µM) | > 128 |  |  |  |  |  | > 64 | > 64 | > 64 | > 64 | > 64 |
| O=C(NCCCS(=O)(=O)N1CCN(C(=O)NC(C(=O)N[C@H]2Cc3ccc(F)c(C(=O)O)c3OB2O)c2cc(F)c(O)c(O)c2Cl)C1=O)c1cccnc1 (stereo partly drawn) [Example 273, (3R)-3-(2-(2-chloro-5-fluoro-3,4-dihydroxyphenyl)-2-(3-((3-(nicotinamido)propyl)sulfonyl)-2-oxoimidazolidine-1-carboxamido)acetamido)-7-fluoro-2-hydroxy-3,4-dihydro-2H-benzo[e][1,2]oxaborinine-8-carboxylic acid] | < 10 | < 10 | 2 to 4 (≈ 2.56 to 5.12 µM) | < 1 | 2 to 4 (≈ 2.56 to 5.12 µM) | 32 to 64 (≈ 41 to 82 µM) | 2 to 4 (≈ 2.56 to 5.12 µM) | 2 to 4 (≈ 2.56 to 5.12 µM) | 2 to 4 (≈ 2.56 to 5.12 µM) | < 1 |  |  |  |  |  | 4 to 8 (≈ 5.12 to 10.2 µM) | 16 to 32 (≈ 20.5 to 41 µM) | > 64 | > 64 | 4 to 8 (≈ 5.12 to 10.2 µM) |
| O=C(NCCN1CCN(C(=O)NC(C(=O)N[C@H]2Cc3ccc(F)c(C(=O)O)c3OB2O)c2cc(F)c(O)c(O)c2Cl)C(=O)C1=O)c1ccncc1 (stereo partly drawn) [Example 216, (3R)-3-(2-(2-chloro-5-fluoro-3,4-dihydroxyphenyl)-2-(4-(2-(isonicotinamido)ethyl)-2,3-dioxopiperazine-1-carboxamido)acetamido)-7-fluoro-2-hydroxy-3,4-dihydro-2H-benzo[e][1,2]oxaborinine-8-carboxylic acid] | < 10 | < 10 | 2 to 4 (≈ 2.74 to 5.47 µM) | < 1 | 8 to 16 (≈ 10.9 to 21.9 µM) | 8 to 16 (≈ 10.9 to 21.9 µM) | 8 to 16 (≈ 10.9 to 21.9 µM) | 8 to 16 (≈ 10.9 to 21.9 µM) | < 1 | < 1 | 4 to 8 (≈ 5.47 to 10.9 µM) | 16 to 32 (≈ 21.9 to 43.8 µM) | > 64 | > 64 | 16 to 32 (≈ 21.9 to 43.8 µM) |  |  |  |  |  |
| O=C(CN1CCN(C(=O)NC(C(=O)N[C@H]2Cc3ccc(F)c(C(=O)O)c3OB2O)c2cc(F)c(O)c(O)c2Cl)C(=O)C1=O)Nc1ccncc1 (stereo partly drawn) [Example 233, (3R)-3-(2-(2-chloro-5-fluoro-3,4-dihydroxyphenyl)-2-(2,3-dioxo-4-(2-oxo-2-(pyridin-4-ylamino)ethyl)piperazine-1-carboxamido)acetamido)-7-fluoro-2-hydroxy-3,4-dihydro-2H-benzo[e][1,2]oxaborinine-8-carboxylic acid] | < 10 | < 10 | < 1 | < 1 | < 1 | 2 to 4 (≈ 2.79 to 5.58 µM) | 8 to 16 (≈ 11.2 to 22.3 µM) | 2 to 4 (≈ 2.79 to 5.58 µM) | < 1 | < 1 | 1 to 2 (≈ 1.4 to 2.79 µM) | 16 to 32 (≈ 22.3 to 44.6 µM) | > 64 | 16 to 32 (≈ 22.3 to 44.6 µM) | 16 to 32 (≈ 22.3 to 44.6 µM) |  |  |  |  |  |
